Source: ChEMBL document CHEMBL4808176, “Optimization of Truncated Glucagon Peptides to Achieve Selective, High Potency, Full Antagonists” (J Med Chem, 2021)
pIC50: −log10 of the molar value. Calls of active or inactive are those of the source. The calls are words filed in the database; no cut-off is given here. Peptide text beside a SMILES is read from it. * marks the point of attachment. Carboxymethyl = O=C(O)C*; CH2CH2COOH = O=C(O)CC*

Columns and labels:
Glucagon receptor [1] = molecular target: T1, Glucagon receptor (Homo sapiens, UniProt P47871); experiment: Partial antagonist activity at human GCGR expressed in HEK293 cells assessed as inhibition of glucogon-induced cAMP production; assay type: functional, cell-based; details: filed as antagonist
Glucagon receptor [2] = molecular target: T1, Glucagon receptor; experiment: Antagonist activity at human GCGR expressed in HEK293 cells assessed as inhibition of glucogon-induced cAMP production; assay type: functional, cell-based
Glucagon receptor [3] = molecular target: T1, Glucagon receptor; experiment: Displacement of 125I-glucagon from human GCGR expressed in HEK293 cells membranes incubated for 6 hrs by liquid scintillation counting method; assay type: cell membranes, Membrane

T1 sequence (P47871 whole entry): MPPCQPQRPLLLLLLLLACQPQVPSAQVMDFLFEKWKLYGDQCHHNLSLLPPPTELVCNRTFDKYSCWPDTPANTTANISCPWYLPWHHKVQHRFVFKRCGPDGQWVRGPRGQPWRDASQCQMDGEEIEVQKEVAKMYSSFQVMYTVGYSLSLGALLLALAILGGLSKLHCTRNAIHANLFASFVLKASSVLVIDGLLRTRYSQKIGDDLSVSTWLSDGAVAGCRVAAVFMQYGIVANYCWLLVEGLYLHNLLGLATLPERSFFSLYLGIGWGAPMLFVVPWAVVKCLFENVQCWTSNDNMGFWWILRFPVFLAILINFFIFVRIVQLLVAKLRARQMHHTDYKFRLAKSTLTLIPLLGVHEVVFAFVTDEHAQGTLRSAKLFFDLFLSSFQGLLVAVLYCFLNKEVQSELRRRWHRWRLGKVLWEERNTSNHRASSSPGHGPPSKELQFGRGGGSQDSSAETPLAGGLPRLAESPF

Row | Compound | Activity (Glucagon receptor [1]) | pIC50 (Glucagon receptor [2]) | pIC50 (Glucagon receptor [3])
1 | CSCC[C@H](NC(=O)[C@H](CC(C)C)NC(=O)[C@H](Cc1c[nH]c2ccccc12)NC(=O)[C@H](CCC(N)=O)NC(=O)[C@@H](NC(=O)[C@H](Cc1ccccc1)NC(=O)[C@H](CC(=O)O)NC(=O)[C@H](CCC(N)=O)NC(=O)[C@H](C)NC(=O)[C@H](CCCNC(=N)N)NC(=O)[C@H](CCCNC(=N)N)NC(=O)[C@H](CO)NC(=O)[C@H](CC(=O)O)NC(=O)[C@H](CC(C)C)NC(=O)[C@H](Cc1ccc(O)cc1)NC(=O)[C@H](CCCCN)NC(=O)[C@H](CO)NC(=O)[C@H](Cc1ccc(O)cc1)NC(=O)[C@H](CSCC(=O)O)NC(=O)[C@H](CO)NC(=O)[C@@H](NC(=O)[C@H](Cc1ccccc1)NC(=O)[C@@H](NC(=O)CNC(=O)[C@H](CCC(N)=O)NC(=O)[C@@H](N)CO)[C@@H](C)O)[C@@H](C)O)C(C)C)C(=O)N[C@@H](CC(N)=O)C(=O)N[C@H](C(N)=O)[C@@H](C)O | Active |  | 
2 | CSCC[C@H](NC(=O)[C@H](CC(C)C)NC(=O)[C@H](Cc1c[nH]c2ccccc12)NC(=O)[C@H](CCC(N)=O)NC(=O)[C@@H](NC(=O)[C@H](Cc1ccccc1)NC(=O)[C@H](CC(=O)O)NC(=O)[C@H](CCC(N)=O)NC(=O)[C@H](C)NC(=O)[C@H](CCCNC(=N)N)NC(=O)[C@H](CCCNC(=N)N)NC(=O)[C@H](CO)NC(=O)[C@H](CC(=O)O)NC(=O)[C@H](CC(C)C)NC(=O)[C@H](Cc1ccc(O)cc1)NC(=O)[C@H](CCCCN)NC(=O)[C@H](CO)NC(=O)[C@H](Cc1ccc(O)cc1)NC(=O)[C@H](CSCC(=O)O)NC(=O)[C@H](CO)NC(=O)[C@@H](NC(=O)[C@@H](N)Cc1ccccc1)[C@@H](C)O)C(C)C)C(=O)N[C@@H](CC(N)=O)C(=O)N[C@H](C(N)=O)[C@@H](C)O (H-FTSC(Carboxymethyl)YSKYLDSRRAQDFVQWLMNT-NH2) |  | 7.15 | 
3 | CSCC[C@H](NC(=O)[C@H](CC(C)C)NC(=O)[C@H](Cc1c[nH]c2ccccc12)NC(=O)[C@H](CCC(N)=O)NC(=O)[C@@H](NC(=O)[C@H](Cc1ccccc1)NC(=O)[C@H](CC(=O)O)NC(=O)[C@H](CCC(N)=O)NC(=O)[C@H](C)NC(=O)[C@H](CCCNC(=N)N)NC(=O)[C@H](CCCNC(=N)N)NC(=O)[C@H](CO)NC(=O)[C@H](CC(=O)O)NC(=O)[C@H](CC(C)C)NC(=O)[C@H](Cc1ccc(O)cc1)NC(=O)[C@H](CCCCN)NC(=O)[C@H](CO)NC(=O)[C@H](Cc1ccc(O)cc1)NC(=O)[C@H](CCC(=O)O)NC(=O)[C@H](CO)NC(=O)[C@@H](NC(=O)[C@@H](N)Cc1ccc2ccccc2c1)[C@@H](C)O)C(C)C)C(=O)N[C@@H](CC(N)=O)C(=O)N[C@H](C(N)=O)[C@@H](C)O (HELM PEPTIDE1{[N[C@@H](Cc1ccc2ccccc2c1)C(=O)[*:2]].T.S.E.Y.S.K.Y.L.D.S.R.R.A.Q.D.F.V.Q.W.L.M.N.T.[am]}$$$$V2.0) |  | 7.36 | 7.02
4 | CSCC[C@H](NC(=O)[C@H](CC(C)C)NC(=O)[C@H](Cc1c[nH]c2ccccc12)NC(=O)[C@H](CCC(N)=O)NC(=O)[C@@H](NC(=O)[C@H](Cc1ccccc1)NC(=O)[C@H](CC(=O)O)NC(=O)[C@H](CCC(N)=O)NC(=O)[C@H](C)NC(=O)[C@H](CCCNC(=N)N)NC(=O)[C@H](CCCNC(=N)N)NC(=O)[C@H](CO)NC(=O)[C@H](CC(=O)O)NC(=O)[C@H](CC(C)C)NC(=O)[C@H](Cc1ccc(O)cc1)NC(=O)[C@H](CCCCN)NC(=O)[C@H](CO)NC(=O)[C@H](Cc1ccc(O)cc1)NC(=O)[C@H](CCC(=O)O)NC(=O)[C@H](CO)NC(=O)[C@@H](NC(=O)[C@@H](N)Cc1ccc(F)c(F)c1)[C@@H](C)O)C(C)C)C(=O)N[C@@H](CC(N)=O)C(=O)N[C@H](C(N)=O)[C@@H](C)O (HELM PEPTIDE1{[N[C@@H](Cc1ccc(F)c(F)c1)C(=O)[*:2]].T.S.E.Y.S.K.Y.L.D.S.R.R.A.Q.D.F.V.Q.W.L.M.N.T.[am]}$$$$V2.0) |  | 6.72 | 7.44
5 | CSCC[C@H](NC(=O)[C@H](CC(C)C)NC(=O)[C@H](Cc1c[nH]c2ccccc12)NC(=O)[C@H](CCC(N)=O)NC(=O)[C@@H](NC(=O)[C@H](Cc1ccccc1)NC(=O)[C@H](CC(=O)O)NC(=O)[C@H](CCC(N)=O)NC(=O)[C@H](C)NC(=O)[C@H](CCCNC(=N)N)NC(=O)[C@H](CCCNC(=N)N)NC(=O)[C@H](CO)NC(=O)[C@H](CC(=O)O)NC(=O)[C@H](CC(C)C)NC(=O)[C@H](Cc1ccc(O)cc1)NC(=O)[C@H](CCCCN)NC(=O)[C@H](CO)NC(=O)[C@H](Cc1ccc(O)cc1)NC(=O)[C@H](CCCC(=O)O)NC(=O)[C@H](CO)NC(=O)[C@@H](NC(=O)[C@H](Cc1ccccc1)NC(=O)[C@@H](NC(=O)CNC(=O)[C@H](CCC(N)=O)NC(=O)[C@@H](N)CO)[C@@H](C)O)[C@@H](C)O)C(C)C)C(=O)N[C@@H](CC(N)=O)C(=O)N[C@H](C(N)=O)[C@@H](C)O | Active |  | 
6 | CSCC[C@H](NC(=O)[C@H](CC(C)C)NC(=O)[C@H](Cc1c[nH]c2ccccc12)NC(=O)[C@H](CCC(N)=O)NC(=O)[C@@H](NC(=O)[C@H](Cc1ccccc1)NC(=O)[C@H](CC(=O)O)NC(=O)[C@H](CCC(N)=O)NC(=O)[C@H](C)NC(=O)[C@H](CCCNC(=N)N)NC(=O)[C@H](CCCNC(=N)N)NC(=O)[C@H](CO)NC(=O)[C@H](CC(=O)O)NC(=O)[C@H](CC(C)C)NC(=O)[C@H](Cc1ccc(O)cc1)NC(=O)[C@H](CCCCN)NC(=O)[C@H](CO)NC(=O)[C@H](Cc1ccc(O)cc1)NC(=O)[C@H](CSCCC(=O)O)NC(=O)[C@H](CO)NC(=O)[C@@H](NC(=O)[C@H](Cc1ccccc1)NC(=O)[C@@H](NC(=O)CNC(=O)[C@H](CCC(N)=O)NC(=O)[C@@H](N)CO)[C@@H](C)O)[C@@H](C)O)C(C)C)C(=O)N[C@@H](CC(N)=O)C(=O)N[C@H](C(N)=O)[C@@H](C)O | Active |  | 
7 | CSCC[C@H](NC(=O)[C@H](CC(C)C)NC(=O)[C@H](Cc1c[nH]c2ccccc12)NC(=O)[C@H](CCC(N)=O)NC(=O)[C@@H](NC(=O)[C@H](Cc1ccccc1)NC(=O)[C@H](CC(=O)O)NC(=O)[C@H](CCC(N)=O)NC(=O)[C@H](C)NC(=O)[C@H](CCCNC(=N)N)NC(=O)[C@H](CCCNC(=N)N)NC(=O)[C@H](CO)NC(=O)[C@H](CC(=O)O)NC(=O)[C@H](CC(C)C)NC(=O)[C@H](Cc1ccc(O)cc1)NC(=O)[C@H](CCCCN)NC(=O)[C@H](CO)NC(=O)[C@H](Cc1ccc(O)cc1)NC(=O)C[C@H](CCC(=O)O)NC(=O)[C@H](CO)NC(=O)[C@@H](NC(=O)[C@H](Cc1ccccc1)NC(=O)[C@@H](NC(=O)CNC(=O)[C@H](CCC(N)=O)NC(=O)[C@@H](N)CO)[C@@H](C)O)[C@@H](C)O)C(C)C)C(=O)N[C@@H](CC(N)=O)C(=O)N[C@H](C(N)=O)[C@@H](C)O | Active |  | 
8 | CSCC[C@H](NC(=O)[C@H](CC(C)C)NC(=O)[C@H](Cc1c[nH]c2ccccc12)NC(=O)[C@H](CCC(N)=O)NC(=O)[C@@H](NC(=O)[C@H](Cc1ccccc1)NC(=O)[C@H](CC(=O)O)NC(=O)[C@H](CCC(N)=O)NC(=O)[C@H](C)NC(=O)[C@H](CCCNC(=N)N)NC(=O)[C@H](CCCNC(=N)N)NC(=O)[C@H](CO)NC(=O)[C@H](CC(=O)O)NC(=O)[C@H](CC(C)C)NC(=O)[C@H](Cc1ccc(O)cc1)NC(=O)[C@H](CCCCN)NC(=O)[C@H](CO)NC(=O)[C@H](Cc1ccc(O)cc1)NC(=O)[C@H](CCC(=O)O)NC(=O)[C@H](CO)NC(=O)[C@@H](NC(=O)C(C)Cc1ccccc1)[C@@H](C)O)C(C)C)C(=O)N[C@@H](CC(N)=O)C(=O)N[C@H](C(N)=O)[C@@H](C)O (some centres not stated) (HELM PEPTIDE1{[CC(Cc1ccccc1)C(=O)[*:2]].T.S.E.Y.S.K.Y.L.D.S.R.R.A.Q.D.F.V.Q.W.L.M.N.T.[am]}$$$$V2.0) |  | 7.32 | 6.94
9 | CSCC[C@H](NC(=O)[C@H](CC(C)C)NC(=O)[C@H](Cc1c[nH]c2ccccc12)NC(=O)[C@H](CCC(N)=O)NC(=O)[C@@H](NC(=O)[C@H](Cc1ccccc1)NC(=O)[C@H](CC(=O)O)NC(=O)[C@H](CCC(N)=O)NC(=O)[C@H](C)NC(=O)[C@H](CCCNC(=N)N)NC(=O)[C@H](CCCNC(=N)N)NC(=O)[C@H](CO)NC(=O)[C@H](CC(=O)O)NC(=O)[C@H](CC(C)C)NC(=O)[C@H](Cc1ccc(O)cc1)NC(=O)[C@H](CCCCN)NC(=O)[C@H](CO)NC(=O)[C@H](Cc1ccc(O)cc1)NC(=O)[C@H](CSCCC(=O)O)NC(=O)[C@H](CO)NC(=O)[C@@H](NC(=O)[C@@H](N)Cc1ccccc1)[C@@H](C)O)C(C)C)C(=O)N[C@@H](CC(N)=O)C(=O)N[C@H](C(N)=O)[C@@H](C)O (H-FTSC(CH2CH2COOH)YSKYLDSRRAQDFVQWLMNT-NH2) |  | 7.09 | 
10 | Ac-FTSEYSKYLDSRRAQDFVQWLMNT-NH2 |  | 6.89 | 7.43
11 | CSCC[C@H](NC(=O)[C@H](CC(C)C)NC(=O)[C@H](Cc1c[nH]c2ccccc12)NC(=O)[C@H](CCC(N)=O)NC(=O)[C@@H](NC(=O)[C@H](Cc1ccccc1)NC(=O)[C@H](CC(=O)O)NC(=O)[C@H](CCC(N)=O)NC(=O)[C@H](C)NC(=O)[C@H](CCCNC(=N)N)NC(=O)[C@H](CCCNC(=N)N)NC(=O)[C@H](CO)NC(=O)[C@H](CC(=O)O)NC(=O)[C@H](CC(C)C)NC(=O)[C@H](Cc1ccc(O)cc1)NC(=O)[C@H](CCCCN)NC(=O)[C@H](CO)NC(=O)[C@H](Cc1ccc(O)cc1)NC(=O)CN(CCC(=O)O)C(=O)[C@H](CO)NC(=O)[C@@H](NC(=O)[C@H](Cc1ccccc1)NC(=O)[C@@H](NC(=O)CNC(=O)[C@H](CCC(N)=O)NC(=O)[C@@H](N)CO)[C@@H](C)O)[C@@H](C)O)C(C)C)C(=O)N[C@@H](CC(N)=O)C(=O)N[C@H](C(N)=O)[C@@H](C)O | Active |  | 
12 | H-GTFTSEYSKYLDSRRAQDFVQWLMNT-NH2 |  | 6.56 | 
13 | CSCC[C@H](NC(=O)[C@H](CC(C)C)NC(=O)[C@H](Cc1c[nH]c2ccccc12)NC(=O)[C@H](CCC(N)=O)NC(=O)[C@@H](NC(=O)[C@H](Cc1ccccc1)NC(=O)[C@H](CC(=O)O)NC(=O)[C@H](CCC(N)=O)NC(=O)[C@H](C)NC(=O)[C@H](CCCNC(=N)N)NC(=O)[C@H](CCCNC(=N)N)NC(=O)[C@H](CO)NC(=O)[C@H](CC(=O)O)NC(=O)[C@H](CC(C)C)NC(=O)[C@H](Cc1ccc(O)cc1)NC(=O)[C@H](CCCCN)NC(=O)[C@H](CO)NC(=O)[C@H](Cc1ccc(O)cc1)NC(=O)CN(CCCC(=O)O)C(=O)[C@H](CO)NC(=O)[C@@H](NC(=O)[C@H](Cc1ccccc1)NC(=O)[C@@H](NC(=O)CNC(=O)[C@H](CCC(N)=O)NC(=O)[C@@H](N)CO)[C@@H](C)O)[C@@H](C)O)C(C)C)C(=O)N[C@@H](CC(N)=O)C(=O)N[C@H](C(N)=O)[C@@H](C)O | Active |  | 
